# From patent US9668951B2, “Pharmaceutical compositions comprising renewably-based biodegradable 1,3-propanediol” (DuPont Tate & Lyle Bio Products Company, LLC, priority 2006, dated 2017)
# Legend:
# [1] = system: human skin; experiment: human skin patch test, 5, 25 and 50% (induction and challenge phases); type: in vivo; conditions: diluted with D.I. water to 5%, 105 panelists completed
# Description: (§1) Based on these studies PDO is not expected to be a skin irritant or sensitizer in humans.
# The purpose of this study was to determine the potential of biologically-derived 1,3-propanediol, diluted to concentrations of 5%, 25%, and 50%, to cause irritation or delayed contact hypersensitivity in humans. The method employed in carrying out this test, described below, was similar to that described in “Appraisal of the Safety of Chemicals in Foods, Drugs and Cosmetics” by J. H. Drake and published by the Association of Food and Drug Officials of the United States, incorporated herein by reference.
# Test Panel: The test involved the application of the test article to the upper arms of a group of 112 volunteer panelists. The panelists ranged from 16 to 71 years of age. One hundred and five panelists completed the study. Prior to the initiation of the study, all panelists were in good general health and free of any visible skin disease or anomaly in the area to be patched. Each panelist was required to read, understand and sign an informed consent statement. […]
# [2] = system: human skin; experiment: second human skin patch test; type: in vivo
# Description: as §1
Structure (SMILES),"skin irritant, fatiguing agent, or sensitizing agent [1]","dermal irritation or sensitization reactions ([2]; 25, 50, and 75% PDO at pH 7, or 75% PDO at pH 4 and 9)","patch test irritation of human skin ([2]; 25, 50, and 75% (pH 7))"
"OCCCO [PDO, 1,3-propanediol]","not to be a skin irritant, fatiguing agent, or sensitizing agent",did not produce any clinically significant dermal irritation or sensitization reactions,–
"CC(O)CO (stereo not drawn) [propylene glycol, reference compound]",–,–,patch test irritants and cumulative irritants
